Test results taken from patent publication US20230126310A1 (priority 2020, published 2023).

System: SARS-CoV-2
Details: 10 µM

## Afatinib (dimaleate)
  % Inh. (% Inhibition of SARS-CoV-2): 60.2%

## C=C[C@@]1(C)CC(=O)[C@]2(O)[C@@]3(C)[C@@H](O)CCC(C)(C)[C@@H]3[C@H](OC(=O)CCN(C)C)[C@H](OC(C)=O)[C@@]2(C)O1 [colforsin-daproate]
  % Inh. (% Inhibition of SARS-CoV-2): 80.3%

## C[C@@H]1COCCN1c1cc(C2(S(C)(=O)=O)CC2)nc(-c2cccc3[nH]ccc23)n1 [AZ20]
  % Inh. (% Inhibition of SARS-CoV-2): 100.0%

## O=C1OC2(c3cc(I)c(O)c(I)c3Oc3c2cc(I)c(O)c3I)c2c(Cl)c(Cl)c(Cl)c(Cl)c21 [rose-bengal-lactone]
  % Inh. (% Inhibition of SARS-CoV-2): 57.6%

## CCOc1ccc(Nc2nc(-c3c(C)nc4ccccn34)cs2)cc1 [JK-184]
  % Inh. (% Inhibition of SARS-CoV-2): 65.2%

## COC(=O)C1=C(C)NC(C)=C(C(=O)OCCSc2ccccc2)C1C (stereo not shown) [PCA-4248]
  % Inh. (% Inhibition of SARS-CoV-2): 55.3%

## O=C(CNC(=O)c1cccc(C(F)(F)F)c1)N[C@@H]1CCN(Cc2ccc(Cl)cc2)C1 [Teijin-compound-1]
  % Inh. (% Inhibition of SARS-CoV-2): 85.7%

## COc1ccccc1C(=O)Nc1cccc(NC(=O)c2cccc(C)c2)c1 [ML-365]
  % Inh. (% Inhibition of SARS-CoV-2): 92.7%

## Cc1ccc(NC(=O)c2cccc(C(C)(C)C#N)c2)cc1Nc1ccc2ncn(C)c(=O)c2c1 [AZ-628]
  % Inh. (% Inhibition of SARS-CoV-2): 99.6%

## COc1cc2ncnc(Nc3cccc(Cl)c3)c2cc1OC [AG-1478 (Tyrphostin AG-1478), Tyrphostin AG-1478]
  % Inh. (% Inhibition of SARS-CoV-2): 73.9%

## COc1ccc(CCN(C)CCCOc2ccc(S(=O)(=O)c3c(C(C)C)c4ccccc4n3C)cc2)cc1OC.O=C(O)C(=O)O [SR-33805 oxalate]
  % Inh. (% Inhibition of SARS-CoV-2): 67.7%

## COc1cc2ncnc(Nc3ccc(Cl)cc3F)c2cc1OC [ZM-306416]
  % Inh. (% Inhibition of SARS-CoV-2): 77.9%

## Cc1sc2c(c1C)C(c1ccc(Cl)cc1)=N[C@@H](CC(=O)Nc1ccc(OCCOCCOCCOCCNc3cccc4c3C(=O)N(C3CCC(=O)NC3=O)C4=O)cc1)c1nnc(C)n1-2 (stereo partly shown) [ARV-825]
  % Inh. (% Inhibition of SARS-CoV-2): 52.8%

## O=[N+]([O-])c1ccccc1S(=O)(=O)NCC1CCC(CNC[C@H]2CCc3ccccc3C2)CC1 (stereo partly shown) [NTNCB]
  % Inh. (% Inhibition of SARS-CoV-2): 92.7%

## CCCCCCCC/C=C/CCCCCCCC(=O)OC[C@H]1O[C@@H](n2ccc(N)nc2=O)C(F)(F)[C@@H]1O [Gemcitabine (elaidate)]
  % Inh. (% Inhibition of SARS-CoV-2): 111.3%

## N#Cc1ccc(-c2csc(NN=C3CCCC3)n2)cc1 [remodelin]
  % Inh. (% Inhibition of SARS-CoV-2): 99.4%

## O=C1NC(=O)/C(=C/c2ccc3nccc(-c4ccncc4)c3c2)S1 [GSK1059615]
  % Inh. (% Inhibition of SARS-CoV-2): 92.4%

## CCOC(=O)c1c(C)[nH]c2ccc3c(c12)CN1CCc2cc(OC)ccc2C1O3 (stereo not shown) [PD-102807]
  % Inh. (% Inhibition of SARS-CoV-2): 121.8%

## CC(C)(Cc1ccc2ccccc2c1)NC[C@@H](O)COc1cccc(Cl)c1C#N [NPS-2143 (SB262470)]
  % Inh. (% Inhibition of SARS-CoV-2): 67.3%

## Nizofenone fumarate
  % Inh. (% Inhibition of SARS-CoV-2): 52.4%

## c1ccc(C(NCc2cccnc2)(c2ccccc2)c2ccccc2)cc1 [UCL-2077]
  % Inh. (% Inhibition of SARS-CoV-2): 70.7%

## O=C1NC(=O)/C(=C/c2cccc(C(F)(F)F)c2)S1 [SMI-4a]
  % Inh. (% Inhibition of SARS-CoV-2): 89.9%

## COc1cc2cc(c1Cl)N(C)C(=O)C[C@H](OC(=O)C(C)C)[C@]1(C)O[C@@H]1[C@H](C)[C@@H]1C[C@@](O)(NC(=O)O1)[C@H](OC)/C=C/C=C(\C)C2 [Ansamitocin P-3]
  % Inh. (% Inhibition of SARS-CoV-2): 62.6%

## FC(F)(F)c1ccc(CNc2ccc(Cc3c[nH]c4ncccc34)cn2)cc1 [PLX-647]
  % Inh. (% Inhibition of SARS-CoV-2): 95.7%

## Cc1c(NC(=O)OC[C@@H]2COCCN2)cn2ncnc(Nc3ccc4c(cnn4Cc4cccc(F)c4)c3)c12 [BMS-599626]
  % Inh. (% Inhibition of SARS-CoV-2): 76.4%

## Cc1ccc(Nc2ncc3c(n2)N(C)C(=O)N(c2cc(NC(=O)c4cccc(C(F)(F)F)c4)ccc2C)C3)cn1 [GNF-7]
  % Inh. (% Inhibition of SARS-CoV-2): 107.6%

## CC(C)n1nc(-c2ccc3oc(N)nc3c2)c2c(N)ncnc21 [INK 128 (MLN0128)]
  % Inh. (% Inhibition of SARS-CoV-2): 84.9%

## Lasofoxifene (Tartrate)
  % Inh. (% Inhibition of SARS-CoV-2): 54.3%

## CCN1/C(=C/C(C)=O)Sc2ccc(OC)cc21 [TG003]
  % Inh. (% Inhibition of SARS-CoV-2): 55.4%

## O=C1Nc2ccc(Cl)c3c2C1(CCCCN1CC=C(c2ccc(Cl)cc2)CC1)CCC3 (stereo not shown) [DR-4485]
  % Inh. (% Inhibition of SARS-CoV-2): 82.8%

## CCCCCCN(CCCCCC)C(=O)Cc1c(-c2ccc(F)cc2)[nH]c2ccccc12 [FGIN-1-27]
  % Inh. (% Inhibition of SARS-CoV-2): 73.5%

## Cc1ccccc1C(=O)c1ccc(Nc2ccc(Br)cc2N)cc1Cl [EO-1428]
  % Inh. (% Inhibition of SARS-CoV-2): 66.1%

## O=C(Nc1ccccc1)N1CCC(Cc2cnc3ccccc3c2)CC1 [PF-750]
  % Inh. (% Inhibition of SARS-CoV-2): 85.2%

## Cc1ccnc(NC(=O)C(C)c2cccc(C(=O)c3ccccc3)c2)c1 (stereo not shown) [piketoprofen]
  % Inh. (% Inhibition of SARS-CoV-2): 72.4%

## FC(F)(F)c1cc(CO[C@H]2CCCN[C@H]2c2ccccc2)cc(C(F)(F)F)c1 [L-733060]
  % Inh. (% Inhibition of SARS-CoV-2): 53.9%

## CC(C)(C)Nc1nc(Nc2ccc(C(N)=O)cc2)cc(N)c1C#N [TC-Mps1-12]
  % Inh. (% Inhibition of SARS-CoV-2): 65.3%

## CCCCC1CCC(c2nc(-c3ccncc3)no2)CC1 (stereo not shown) [PSN-375963]
  % Inh. (% Inhibition of SARS-CoV-2): 83.9%
